ChEMBL document CHEMBL3991601, “The target landscape of clinical kinase drugs” (Science, 2017)
The source made the active and inactive calls. Cut-off read from the data, not from the text of the source, for most assays here: actives have a measured Kd and inactives only a lower limit.

Assays:
[1] = target: Calcium/calmodulin-dependent protein kinase kinase 2 (Homo sapiens, UniProt Q96RR4)
[2] = target: T1, General transcription and DNA repair factor IIH helicase subunit XPD (Homo sapiens, UniProt P18074); settings: read-out: Kd apparent; k-562, colo 205, sk-n-be(2) and mv-4-11
T1 sequence (P18074 whole entry): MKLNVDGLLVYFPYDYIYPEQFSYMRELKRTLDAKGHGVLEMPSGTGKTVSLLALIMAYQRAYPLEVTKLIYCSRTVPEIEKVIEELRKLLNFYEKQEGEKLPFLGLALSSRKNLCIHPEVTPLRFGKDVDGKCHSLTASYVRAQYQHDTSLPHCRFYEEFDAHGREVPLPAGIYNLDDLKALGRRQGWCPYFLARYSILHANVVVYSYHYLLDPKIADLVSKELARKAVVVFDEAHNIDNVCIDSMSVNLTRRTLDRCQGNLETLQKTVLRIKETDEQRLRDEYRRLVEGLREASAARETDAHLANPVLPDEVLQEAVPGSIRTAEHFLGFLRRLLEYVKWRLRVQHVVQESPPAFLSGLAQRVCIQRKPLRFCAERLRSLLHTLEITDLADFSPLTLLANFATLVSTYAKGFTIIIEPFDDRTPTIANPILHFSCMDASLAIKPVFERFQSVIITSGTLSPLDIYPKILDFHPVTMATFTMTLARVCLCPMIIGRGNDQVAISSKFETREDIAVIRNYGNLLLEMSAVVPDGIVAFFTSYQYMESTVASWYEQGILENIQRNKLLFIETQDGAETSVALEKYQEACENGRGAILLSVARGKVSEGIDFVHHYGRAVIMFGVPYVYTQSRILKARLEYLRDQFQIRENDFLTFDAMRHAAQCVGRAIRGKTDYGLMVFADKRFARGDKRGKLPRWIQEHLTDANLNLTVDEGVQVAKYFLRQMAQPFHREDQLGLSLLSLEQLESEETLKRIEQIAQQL

[3] = target: Protein kinase C delta type (Homo sapiens, UniProt Q05655)
[4] = target: T2, Receptor-type tyrosine-protein kinase FLT3 (Homo sapiens, UniProt P36888)
T2 sequence (P36888 whole entry): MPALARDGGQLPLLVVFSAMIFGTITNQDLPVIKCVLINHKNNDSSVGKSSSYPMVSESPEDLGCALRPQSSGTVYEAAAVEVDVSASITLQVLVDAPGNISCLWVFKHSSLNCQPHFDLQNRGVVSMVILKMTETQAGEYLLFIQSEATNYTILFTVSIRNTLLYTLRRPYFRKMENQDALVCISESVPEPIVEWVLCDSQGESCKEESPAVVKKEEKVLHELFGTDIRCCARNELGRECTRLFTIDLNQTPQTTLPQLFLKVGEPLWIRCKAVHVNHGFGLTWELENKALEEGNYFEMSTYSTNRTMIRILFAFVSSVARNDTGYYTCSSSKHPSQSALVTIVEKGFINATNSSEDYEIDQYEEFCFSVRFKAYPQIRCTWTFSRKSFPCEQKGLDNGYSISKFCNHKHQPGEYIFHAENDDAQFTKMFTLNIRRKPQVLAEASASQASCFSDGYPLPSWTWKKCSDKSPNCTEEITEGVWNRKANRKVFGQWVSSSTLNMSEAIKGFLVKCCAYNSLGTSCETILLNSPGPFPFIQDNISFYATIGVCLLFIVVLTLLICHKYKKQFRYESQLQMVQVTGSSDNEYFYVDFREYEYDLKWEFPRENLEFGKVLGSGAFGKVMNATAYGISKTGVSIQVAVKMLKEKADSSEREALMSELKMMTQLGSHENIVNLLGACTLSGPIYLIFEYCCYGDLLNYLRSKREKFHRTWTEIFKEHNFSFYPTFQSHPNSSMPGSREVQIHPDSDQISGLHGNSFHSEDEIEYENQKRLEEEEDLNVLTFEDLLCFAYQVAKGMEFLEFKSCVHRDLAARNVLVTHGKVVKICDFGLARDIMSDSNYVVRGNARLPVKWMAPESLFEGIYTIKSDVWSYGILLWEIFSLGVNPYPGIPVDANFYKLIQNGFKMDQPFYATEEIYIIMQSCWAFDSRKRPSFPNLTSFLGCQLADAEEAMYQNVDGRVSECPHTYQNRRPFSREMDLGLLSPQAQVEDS

Ephrin type-B receptor 3 = target: T3, Ephrin type-B receptor 3 (Homo sapiens, UniProt P54753)
T3 sequence (P54753 whole entry): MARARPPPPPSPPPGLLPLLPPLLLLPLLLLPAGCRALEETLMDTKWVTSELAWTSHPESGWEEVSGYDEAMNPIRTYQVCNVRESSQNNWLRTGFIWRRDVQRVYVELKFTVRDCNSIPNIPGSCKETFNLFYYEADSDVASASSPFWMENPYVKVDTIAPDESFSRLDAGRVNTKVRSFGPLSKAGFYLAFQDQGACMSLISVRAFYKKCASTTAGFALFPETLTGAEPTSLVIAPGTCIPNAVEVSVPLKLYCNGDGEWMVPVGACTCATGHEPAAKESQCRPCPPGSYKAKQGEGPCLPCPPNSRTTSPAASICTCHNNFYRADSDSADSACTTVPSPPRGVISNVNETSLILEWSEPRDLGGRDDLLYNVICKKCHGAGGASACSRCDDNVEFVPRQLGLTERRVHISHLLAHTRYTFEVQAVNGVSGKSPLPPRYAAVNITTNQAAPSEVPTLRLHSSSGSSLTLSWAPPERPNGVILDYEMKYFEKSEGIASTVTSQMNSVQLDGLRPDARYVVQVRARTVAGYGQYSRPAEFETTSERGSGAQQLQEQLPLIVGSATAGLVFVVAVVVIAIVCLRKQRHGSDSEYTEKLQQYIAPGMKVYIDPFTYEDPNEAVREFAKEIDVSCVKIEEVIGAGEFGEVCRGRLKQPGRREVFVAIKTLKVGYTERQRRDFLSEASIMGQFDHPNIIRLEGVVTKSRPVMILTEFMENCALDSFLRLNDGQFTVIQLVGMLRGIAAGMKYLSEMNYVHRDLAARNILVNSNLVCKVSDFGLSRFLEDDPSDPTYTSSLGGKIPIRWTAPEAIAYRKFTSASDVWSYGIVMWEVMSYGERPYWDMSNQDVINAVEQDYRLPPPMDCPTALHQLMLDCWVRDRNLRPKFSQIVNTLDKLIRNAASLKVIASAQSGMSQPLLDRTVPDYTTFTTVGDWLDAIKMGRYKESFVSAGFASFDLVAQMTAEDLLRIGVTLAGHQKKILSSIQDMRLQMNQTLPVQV
Note: in the data inactive means no Kd found up to 30 µM.

Chain of Protein kinase C delta type (Q05655 whole entry): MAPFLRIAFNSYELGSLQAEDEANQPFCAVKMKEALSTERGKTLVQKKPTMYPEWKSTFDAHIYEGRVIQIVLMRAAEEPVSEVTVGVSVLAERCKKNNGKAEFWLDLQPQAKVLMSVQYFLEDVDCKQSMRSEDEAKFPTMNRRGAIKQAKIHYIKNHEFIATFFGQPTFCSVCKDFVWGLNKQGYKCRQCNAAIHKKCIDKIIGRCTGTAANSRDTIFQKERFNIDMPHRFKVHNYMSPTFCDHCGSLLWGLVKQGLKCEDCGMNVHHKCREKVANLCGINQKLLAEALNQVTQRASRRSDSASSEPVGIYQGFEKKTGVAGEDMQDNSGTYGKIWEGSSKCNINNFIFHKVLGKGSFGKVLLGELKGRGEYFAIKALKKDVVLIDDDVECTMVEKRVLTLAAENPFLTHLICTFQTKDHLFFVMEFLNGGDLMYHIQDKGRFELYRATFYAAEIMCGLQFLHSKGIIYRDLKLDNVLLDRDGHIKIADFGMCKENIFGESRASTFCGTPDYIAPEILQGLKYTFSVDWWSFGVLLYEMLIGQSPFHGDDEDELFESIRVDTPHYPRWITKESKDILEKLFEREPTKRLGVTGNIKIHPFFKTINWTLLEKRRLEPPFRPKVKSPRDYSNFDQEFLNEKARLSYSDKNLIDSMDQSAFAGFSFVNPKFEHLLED
Chain of Calcium/calmodulin-dependent protein kinase kinase 2 (Q96RR4 whole entry): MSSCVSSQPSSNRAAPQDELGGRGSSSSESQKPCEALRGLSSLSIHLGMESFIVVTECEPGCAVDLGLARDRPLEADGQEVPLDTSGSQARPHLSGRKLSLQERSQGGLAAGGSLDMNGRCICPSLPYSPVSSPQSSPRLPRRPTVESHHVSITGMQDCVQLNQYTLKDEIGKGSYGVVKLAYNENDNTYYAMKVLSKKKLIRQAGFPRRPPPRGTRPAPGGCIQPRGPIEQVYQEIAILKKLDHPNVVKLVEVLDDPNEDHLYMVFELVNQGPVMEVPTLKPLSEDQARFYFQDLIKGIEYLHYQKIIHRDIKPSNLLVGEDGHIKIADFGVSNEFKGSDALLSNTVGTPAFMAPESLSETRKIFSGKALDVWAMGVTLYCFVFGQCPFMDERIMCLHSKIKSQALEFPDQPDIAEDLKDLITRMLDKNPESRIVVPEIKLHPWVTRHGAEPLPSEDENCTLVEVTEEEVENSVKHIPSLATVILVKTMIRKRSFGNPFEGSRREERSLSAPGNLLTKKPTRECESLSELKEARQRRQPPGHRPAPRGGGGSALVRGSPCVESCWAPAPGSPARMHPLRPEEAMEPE

| Structure (SMILES) | Kd [1] | Kd [2] | Kd [3] | Kd [4] | Kd (Ephrin type-B receptor 3) |
| --- | --- | --- | --- | --- | --- |
| Cc1nc(Nc2n[nH]c3c2CN(C(=O)N[C@H](CN(C)C)c2ccccc2)C3(C)C)c2sccc2n1 [PF-03758309] | 2.86 µM (active) | 0.002 µM (active) | 0.974 µM (active) | 1.44 µM (active) | > 30 µM (inactive) |
| Cc1cnc(NC(=O)Nc2cc(Br)c(C)cc2OC[C@@H]2CNCCO2)cn1 [RABUSERTIB] | > 30 µM (inactive) | > 30 µM (inactive) | > 30 µM (inactive) | > 30 µM (inactive) | > 30 µM (inactive) |
| CO[C@H]1C[C@@H]2CC[C@@H](C)[C@@](O)(O2)C(=O)C(=O)N2CCCC[C@H]2C(=O)O[C@H]([C@H](C)C[C@@H]2CC[C@@H](OP(C)(C)=O)[C@H](OC)C2)CC(=O)[C@H](C)/C=C(\C)[C@@H](O)[C@@H](OC)C(=O)[C@H](C)C[C@H](C)/C=C/C=C/C=C/1C [RIDAFOROLIMUS] | > 30 µM (inactive) | > 30 µM (inactive) | > 30 µM (inactive) | > 30 µM (inactive) | > 30 µM (inactive) |
| O=c1[nH]ccc2cc(OC3CCNCC3)ccc12 [SAR-407899 FREE BASE] | > 30 µM (inactive) | > 30 µM (inactive) | 0.021 µM (active) | > 30 µM (inactive) | > 30 µM (inactive) |
| CN1CCN(CCOc2cc(OC3CCOCC3)c3c(Nc4c(Cl)ccc5c4OCO5)ncnc3c2)CC1 [SARACATINIB] | > 30 µM (inactive) | > 30 µM (inactive) | > 30 µM (inactive) | 0.14 µM | > 30 µM (inactive) |
| Cn1cc(-c2cnn3c(N)c(Br)c([C@@H]4CCCNC4)nc23)cn1 [SCH-900776] | > 30 µM (inactive) | > 30 µM (inactive) | 1.64 µM (active) | > 30 µM (inactive) | > 30 µM (inactive) |
| CO[C@H]1C[C@@H]2CC[C@@H](C)[C@@](O)(O2)C(=O)C(=O)N2CCCC[C@H]2C(=O)O[C@H]([C@H](C)C[C@@H]2CC[C@@H](O)[C@H](OC)C2)CC(=O)[C@H](C)/C=C(\C)[C@@H](O)[C@@H](OC)C(=O)[C@H](C)C[C@H](C)/C=C/C=C/C=C/1C [SIROLIMUS] | > 30 µM (inactive) | > 30 µM (inactive) | > 30 µM (inactive) | > 30 µM (inactive) | > 30 µM (inactive) |
| CO[C@H]1C[C@@H]2CC[C@@H](C)[C@@](O)(O2)C(=O)C(=O)N2CCCC[C@H]2C(=O)O[C@H]([C@H](C)C[C@@H]2CC[C@@H](OC(=O)C(C)(CO)CO)[C@H](OC)C2)CC(=O)[C@H](C)/C=C(\C)[C@@H](O)[C@@H](OC)C(=O)[C@H](C)C[C@H](C)/C=C/C=C/C=C/1C [TEMSIROLIMUS] | > 30 µM (inactive) | > 30 µM (inactive) | > 30 µM (inactive) | > 30 µM (inactive) | > 30 µM (inactive) |
| COc1cc2c(Nc3ccc(Cl)c(Cl)c3F)ncnc2cc1OC[C@@H]1C[C@@H]2CN(C)C[C@@H]2C1 [TESEVATINIB] | > 30 µM (inactive) | > 30 µM (inactive) | > 30 µM (inactive) | > 30 µM (inactive) | > 30 µM (inactive) |
| C[C@@H](NC(=O)c1ncnc(N)c1Cl)c1ncc(C(=O)Nc2cc(C(F)(F)F)c(Cl)cn2)s1 [TOVORAFENIB] | > 30 µM (inactive) | > 30 µM (inactive) | > 30 µM (inactive) | > 30 µM (inactive) | > 30 µM (inactive) |
| Cc1cc(Nc2ncnc3ccc(NC4=NC(C)(C)CO4)cc23)ccc1Oc1ccn2ncnc2c1 [TUCATINIB] | > 30 µM (inactive) | > 30 µM (inactive) | > 30 µM (inactive) | > 30 µM (inactive) | > 30 µM (inactive) |
| Cn1ncc(Cl)c1-c1cc(C(=O)N[C@H](CN)Cc2ccc(F)c(F)c2)oc1Cl [UPROSERTIB] | > 30 µM (inactive) | > 30 µM (inactive) | > 30 µM (inactive) | > 30 µM (inactive) | > 30 µM (inactive) |
| CC(C)c1cc(CNc2nc(Nc3cc(C4CC4)[nH]n3)cc(N3CCN(C)CC3)n2)on1 [XL-228] | 2.34 µM (active) | 0.953 µM (active) | > 30 µM (inactive) | 0.005 µM (active) | > 30 µM (inactive) |

Second part, the molecule after the results:

| Kd [1] | Kd [2] | Kd [3] | Kd [4] | Kd (Ephrin type-B receptor 3) | Structure (SMILES) |
| --- | --- | --- | --- | --- | --- |
| > 30 µM (inactive) | > 30 µM (inactive) | > 30 µM (inactive) | > 30 µM (inactive) | > 30 µM (inactive) | N#CC1(c2ccc(NC(=O)c3cccnc3NCc3ccncc3)cc2)CCCC1 [RIVOCERANIB] |
| > 30 µM (inactive) | > 30 µM (inactive) | > 30 µM (inactive) | > 30 µM (inactive) | > 30 µM (inactive) | O=C(Cc1ccc(-c2ccc(OCCN3CCOCC3)cc2)cn1)NCc1ccccc1 [TIRBANIBULIN] |
| > 30 µM (inactive) | > 30 µM (inactive) | > 30 µM (inactive) | > 30 µM (inactive) | > 30 µM (inactive) | O=C1NC(=O)[C@@H](c2cn3c4c(cccc24)CCC3)[C@@H]1c1c[nH]c2ccccc12 [TIVANTINIB] |
| > 30 µM (inactive) | > 30 µM (inactive) | 0.034 µM (active) | > 30 µM (inactive) | > 30 µM (inactive) | C[C@@H](N)c1ccc(C(=O)Nc2ccnc3[nH]ccc23)cc1 [Y-39983] |
| > 30 µM (inactive) | 0.319 µM | 0.996 µM (active) | 0.418 µM | > 30 µM (inactive) | CN1C/C=C/CCOc2cccc(c2)-c2ccnc(n2)Nc2cccc(c2)C1 [ZOTIRACICLIB] |
